Results on 21 compounds are retold here after patent US20240252508A1, “Novel glucose uptake inhibitors for use in the treatment of cancer” (NOVELYEAST BV, priority 2021, published 2024).

The test system of data set [1] is A549 lung adenocarcinoma cells. In words: A549 cell proliferation / growth inhibition. The data set is classed as cell-based, human. The settings on record: for Selected from primary screen for growth inhibition of A549 cells at 50 μM: 50 μM compound; for Selected for having an IC50 ratio (10 mM glucose: 1 mM glucose) of A549 growth higher than WBC-A: IC50 on 10 mM vs 1 mM glucose, compared with WBC-A. The method in brief:
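A549 growth screened in RPMI with 1 mM glucose, compounds at 50 μM; cell number from counts of Hoechst-stained nuclei after 3 days. Growth curves also followed by IncuCyte phase-contrast confluency over 3–5 days (1000–1500 cells/well), DMSO ≤0.1%, ≥4 technical repeats.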

Data set [2] relates to A549 lung adenocarcinoma cells. Kind of data set: 2-deoxyglucose uptake in A549 cells. The data set is classed as cell-based, human. The settings on record: Lineweaver-Burk plot analysis. The protocol:
Zero-trans glucose uptake in A549 cells was approximated by measuring the uptake of [1,2-^3H]2-deoxyglucose. For this purpose, A549 cells were pregrown in RPMI medium containing 10 mM glucose in a 24-well plate to a cell density of around 100,000 cells/well. Prior to adding radioactive label, cells were gently washed twice in Krebs-Ringer-HEPES buffer (50 mM HEPES pH 7.4, 137 mM NaCl, 4.7 mM KCl, […], 1.3 mM MgSO4 and 0.1% w/v BSA) at 30° C. to remove any residual sugar. RPMI medium without sugar containing the compound intended for treatment, was added to the cells for 15 min at 37° C. to allow adequate interaction of the cells with the compound.
The uptake measurement was initiated by adding an equal volume of medium containing radiolabeled 2DG. After 3-4 min, medium was aspirated and cells were gently washed three times with ice-cold Krebs-Ringer-HEPES buffer. Cells were lysed by adding 200 μL of ice-cold 0.1 M NaOH solution and incubating the plate for 10 min at 37° C. Cell lysates were transferred to scintillation vials for subsequent scintillation counting. For blank measurements, cells were incubated with 50 μM Cytochalasin B prior to the uptake measurement.

In data set [3] the test system is U266 multiple myeloma cell line. In words: U266 proliferation (cell count). The format is cell-based, human. The note with it: 25 μM, 4 days, RPMI with 1 mM glucose. The protocol:
a. Cell count of the U266 multiple myeloma cell line after 4 days of growth on RPMI medium with 1 mM glucose. Cells were treated with either DMSO or 25 μM of WBC-A, -15C, -4C or -11C. Glucose consumption (b.) or lactate secretion (c.) rates are shown for U266 cells incubated in RPMI medium supplemented with 1 mM glucose for 8 h.

For data set [4], the system named is A549 lung adenocarcinoma cells. In words: Steady-state glucose consumption and lactate production in A549 cells. The data set is classed as cell-based, human. The settings on record: 25 μM, 1 mM glucose, 8 h. The protocol: (§1) The influence of WBC compounds on the steady-state glucose consumption rate was studied in the A549 adenocarcinoma and KMS-12-PE multiple myeloma cell lines. As such, different parameters needed to be optimized depending on whether cells were adherent or in suspension. As such, A549 cells were incubated at 125,000 cells/well in a 24-well plate in 300 μL RPMI medium for 8 h. For the KMS-12-PE cell line, 100,000 cells/well were incubated in 100 μL RPMI medium in a 96-well plate for 8 h. Medium was collected, spun down and HPLC-analyzed for measuring glucose and lactate levels. Metabolite levels were corrected for cell number, which always varied little over the span of 8 h. For every condition, at least 4 technical repeats were included.

For data set [5], the system named is KMS-12-PE multiple myeloma cells. In words: Steady-state glucose consumption and lactate production in KMS-12-PE cells. The note with it: 25 μM, 1 mM glucose, 8 h. The data set is classed as cell-based, human. The protocol: as §1
A short description of data set [6]: Warbicin toxicity and tolerability in mice. The format is in vivo, NMRI-nu mice. The protocol:
Warbicin in vivo toxicity and tolerability was examined by subjecting NMRI-nu mice to daily intraperitoneal injection of either WBC-A, WBC-15C, WBC-4C or WBC-11C. Compounds were dosed at either 5 mg/kg, 10 mg/kg or 20 mg/kg over a period of 20 days. Three mice were used per condition. To evaluate toxicity, change in body weight was registered daily. As a humane endpoint, mice that lost more than 20% of their original body weight were prematurely sacrificed. An optimal dissolve strategy was developed to administer WBC compounds by intraperitoneal injection. Due to their considerable hydrophobicity, compounds were dissolved in a sterilized 1×PBS, 5% DMSO and 5% Tween-80 solution. For WBC-A, -15C and -4C, this gives an initial clear solution that gradually changes over time into a homogenous suspension which can still be administered in a reproducible way. For WBC-11C it immediately results in a homogenous suspension.

Data set [7] concerns tps1Δ cells. In words: Growth rescue of tps1Δ strain on glucose (growth curves, 2% galactose medium). The format is cell-based, S. cerevisiae. The settings on record: 100 μM compound, 2.5 mM glucose. The method in brief:
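tps1Δ yeast pregrown in Complete Synthetic medium with 2% galactose, washed, resuspended to OD 0.1; compounds added 10 min before glucose. Growth followed as OD595 every 30 min at 30 °C in at least three technical replicates.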

“Also recorded” adds a separate entry of the source.

Take `Cc1nc(NCC(=O)Nc2ccccc2Br)c2c(-c3cccs3)csc2n1` [WBC-15C]: the “Growth inhibition of A549 cells at the highest concentration” value in data set [1] (50 μM, 1 mM glucose) was “failed to cause complete inhibition”. Further, the “Potency in reducing maximal growth rate of A549 cells” value in data set [1] (1 mM glucose, 6.25-50 μM) is on record as “least potent”. Moreover, the “Type of inhibition of 2-deoxyglucose uptake in A549 cells” value in data set [2] was “competitive”. Besides, the “Proliferation of U266 cell line” value in data set [3] is “inhibit proliferation”. Moreover, the “Glucose consumption and lactate production in A549 cells” value in data set [4] was “inhibited”. Further, the “Glucose consumption and lactate production in KMS-12-PE cells” value in data set [5] was “inhibited”. Further, the “Toxic effects in organs at autopsy, 20 mg/kg” value in data set [6] (daily i.p. 20 mg/kg, not observed at lower concentrations) was “toxic effects were seen in the liver and other organs”. In addition, the “Loss in body weight over 20 days” value in data set [6] (daily i.p. 5, 10 and 20 mg/kg, nude mice) is listed as “no significant loss in body weight; also recorded: No significant difference”. Further, in data set [6] (sera after 20 days, 5, 10, 20 mg/kg i.p.), the “AST/ALT ratio vs vehicle” value was “No significant difference”. Besides, the “Blood glucose level vs vehicle” value in data set [6] (sera post mortem after 20 days, 5, 10, 20 mg/kg i.p.) is recorded as “No significant difference”.
As to `Cc1nc(SCCO)c2c(-c3cccs3)csc2n1` [47A], the “Rescue of the tps1Δ strain on 2.5 mM glucose at 100 μM” value (from here on “Rescue of the tps1Δ strain”) in data set [7] is listed as “Yes”. In addition, in data set [1] (1 mM glucose), the “Selected from primary screen for growth inhibition of A549 cells at 50 μM” value was “Yes”. Also, in data set [1], the “Selected for having an IC50 ratio (10 mM glucose: 1 mM glucose) of A549 growth higher than WBC-A” value (“Selected for having an IC50 ratio” below) is given as “Lower IC50 ratio”.
Turning to `CC(=O)CSc1nc(C)nc2scc(-c3cccs3)c12` [26B], the “Rescue of the tps1Δ strain” value in data set [7] was “No”. Further, the “Selected from primary screen for growth inhibition of A549 cells at 50 μM” value in data set [1] (1 mM glucose) is on record as “No”.
As to `Cc1sc2ncnc(Sc3nnc4ccccn34)c2c1C` [58A], the “Rescue of the tps1Δ strain” value in data set [7] is “No”. The “Selected from primary screen for growth inhibition of A549 cells at 50 μM” value in data set [1] (1 mM glucose) is on record as “No”.
For `Cc1nc(Sc2nnc3n2CCCCC3)c2c3c(sc2n1)CCC3` [63A], in data set [7], the “Rescue of the tps1Δ strain” value is recorded as “No”. Moreover, the “Selected from primary screen for growth inhibition of A549 cells at 50 μM” value in data set [1] (1 mM glucose) was “No”.
For `Cc1nc(SCC(C#N)CCC#N)c2c(-c3cccs3)csc2n1` (stereo not shown) [21C], the “Rescue of the tps1Δ strain” value in data set [7] is on record as “No”. The “Selected from primary screen for growth inhibition of A549 cells at 50 μM” value in data set [1] (1 mM glucose) is “No”.
Take `Cc1nc(N(C)CC(=O)N2CCN(C)CC2)c2c(-c3cccs3)csc2n1` [10B]: the “Rescue of the tps1Δ strain” value in data set [7] is “No”. Also, in data set [1] (1 mM glucose), the “Selected from primary screen for growth inhibition of A549 cells at 50 μM” value is reported as “No”.
For the compound `CCOC(=O)c1sc2nc(C)nc(SCC(N)=O)c2c1C` [59C], the “Rescue of the tps1Δ strain” value in data set [7] was “No”. In data set [1] (1 mM glucose), the “Selected from primary screen for growth inhibition of A549 cells at 50 μM” value is “No”.
Take `c1nc(Sc2nnc3n2CCCCC3)c2c3c(sc2n1)CCCC3` [65A]: in data set [7], the “Rescue of the tps1Δ strain” value is recorded as “No”. Besides, the “Selected from primary screen for growth inhibition of A549 cells at 50 μM” value in data set [1] (1 mM glucose) was “No”.
With `Cc1nc(SCC(=O)OC(C)(C)C)c2c3c(sc2n1)CCCC3` [31C], the “Rescue of the tps1Δ strain” value in data set [7] was “No”. For the same compound, the “Selected from primary screen for growth inhibition of A549 cells at 50 μM” value in data set [1] (1 mM glucose) was “No”.
In the case of `OCCCSc1ncnc2scc(-c3ccc(F)cc3)c12` [53C], in data set [7], the “Rescue of the tps1Δ strain” value is listed as “No”. For the same compound, the “Selected from primary screen for growth inhibition of A549 cells at 50 μM” value in data set [1] (1 mM glucose) was “No”.
As for `Cc1sc2[nH]c(CSc3nnc(-c4cccs4)n3Cc3ccccc3)nc(=N)c2c1C` [11A], in data set [7], the “Rescue of the tps1Δ strain” value is “No”. In addition, the “Selected from primary screen for growth inhibition of A549 cells at 50 μM” value in data set [1] (1 mM glucose) is “No”.
For the compound `Cc1nc(SCC(=O)NC(N)=O)c2c(-c3cccs3)csc2n1` [6B], the “Rescue of the tps1Δ strain” value in data set [7] is listed as “Yes”. For the same compound, the “Selected from primary screen for growth inhibition of A549 cells at 50 μM” value in data set [1] (1 mM glucose) is listed as “Yes”. The “Selected for having an IC50 ratio” value in data set [1] was “Lower IC50 ratio”.
As to `COC(=O)CSc1nnc(C(C)C)c2cnn(-c3ccc(C)cc3)c12` [76C], the “Rescue of the tps1Δ strain” value in data set [7] is reported as “No”. Also, the “Selected from primary screen for growth inhibition of A549 cells at 50 μM” value in data set [1] (1 mM glucose) is on record as “Yes”. Also, the “Selected for having an IC50 ratio” value in data set [1] was “Lower IC50 ratio”.
On to `Cc1ccc(-c2csc3ncnc(SCCN4CCOCC4)c23)cc1` [9C], for which the “Rescue of the tps1Δ strain” value in data set [7] is given as “No”. In data set [1] (1 mM glucose), the “Selected from primary screen for growth inhibition of A549 cells at 50 μM” value is listed as “Yes”. In addition, the “Selected for having an IC50 ratio” value in data set [1] is listed as “Lower IC50 ratio”.
In the case of `CCNc1nnc(Sc2nc(C)nc3scc(-c4cccs4)c23)s1` [46C], in data set [7], the “Rescue of the tps1Δ strain” value is listed as “No”. Besides, the “Selected from primary screen for growth inhibition of A549 cells at 50 μM” value in data set [1] (1 mM glucose) was “No”.
Regarding `Cc1cc(C)nc(Sc2nc(CN3CCOCC3)nc3scc(-c4cccs4)c23)n1` [64C], the “Rescue of the tps1Δ strain” value in data set [7] is “No”. The “Selected from primary screen for growth inhibition of A549 cells at 50 μM” value in data set [1] (1 mM glucose) is on record as “Yes”. Moreover, the “Selected for having an IC50 ratio” value in data set [1] is “Lower IC50 ratio”.
Take `Cc1nc(SCC(=O)N2CC(C)OC(C)C2)c2c(-c3cccs3)csc2n1` (stereo not shown) [5B]: the “Rescue of the tps1Δ strain” value in data set [7] is recorded as “Yes”. For the same compound, in data set [1] (1 mM glucose), the “Selected from primary screen for growth inhibition of A549 cells at 50 μM” value is listed as “No”.
Taken in the same sequence, the figures for `c1ccc2c(c1)sc1nnc(Sc3ncnc4sc5c(c34)CCCC5)n12` [62A] were “No” and “No”.
Taken in the same sequence, the figures for `Cc1nc(SCC(=O)NCC(=O)Nc2cccc(C)c2C)c2c(-c3cccs3)csc2n1` [41B] were “No” and “No”.
Regarding `Cc1nc(Sc2nnc(-c3ccoc3C)n2C)c2c(-c3cccs3)csc2n1` [63C], the “Rescue of the tps1Δ strain” value in data set [7] is reported as “No”. The “Selected from primary screen for growth inhibition of A549 cells at 50 μM” value in data set [1] (1 mM glucose) is reported as “No”.
